The results in this text go back to patent US20120165384A1, “INHIBITION OF HISTONE ACETYLTRANSFERASES BY CTK7A AND METHODS THEREOF” (JAWAHARLAL NEHRU CENTRE FOR ADVANCED SCIENTIFIC RESEARCH, priority 2009, published 2012).

For experiment [1], the target named is T1, PCAF (Homo sapiens, UniProt Q92831).
T1 construct: Recombinant baculovirus expressing full-length FLAG-tagged CARM1,CBP and PCAF; FLAG; made in house; host or cells: baculovirus-infected Sf21 cells
The experiment can be described thus: HAT assay with recombinant PCAF. The class given is biochemical. Here is the method:
(§1) Recombinant baculovirus expressing full-length FLAG-tagged CARM1,CBP and PCAF were purified by immunoaffinity chromatography using M2-agarose beads followed by elution with FLAG peptide. Baculovirus-expressed full-length hexahistidine-tagged p300, and G9a were purified using Ni-NTA affinity chromatography as described previously^30.
HAT gel fluorography/autoradiography assays were performed as previously reported^30. Kinetic analysis of p300 HAT inhibition was performed as reported earlier^31 in the presence of (0, 30 and 50 μM) CTK7A. The obtained values were plotted as a lineweaver burk plot using Graphpad Prism software. For p300 Autoacetylation assay, reactions of p300 full length (80 ng) were carried out in HAT assay buffer at 30° C. for 10 minutes with or without the protein (NPM1) followed by addition of 1 μl of 4.7 Ci/mmol [^3H] acetyl CoA (NEN-PerkinElmer) and were further incubated for another 10 min in a 30 μl reaction. GAPDH was used as positive control. The radio-labeled acetylated p300 were processed by fluorography followed by autoradiography.

A further experiment has as its target T2, G9a (Homo sapiens, UniProt Q96KQ7).
T2 construct: hexahistidine; made in house; host or cells: baculovirus-infected Sf21 cells
T2 sequence (Q96KQ7 1-1210): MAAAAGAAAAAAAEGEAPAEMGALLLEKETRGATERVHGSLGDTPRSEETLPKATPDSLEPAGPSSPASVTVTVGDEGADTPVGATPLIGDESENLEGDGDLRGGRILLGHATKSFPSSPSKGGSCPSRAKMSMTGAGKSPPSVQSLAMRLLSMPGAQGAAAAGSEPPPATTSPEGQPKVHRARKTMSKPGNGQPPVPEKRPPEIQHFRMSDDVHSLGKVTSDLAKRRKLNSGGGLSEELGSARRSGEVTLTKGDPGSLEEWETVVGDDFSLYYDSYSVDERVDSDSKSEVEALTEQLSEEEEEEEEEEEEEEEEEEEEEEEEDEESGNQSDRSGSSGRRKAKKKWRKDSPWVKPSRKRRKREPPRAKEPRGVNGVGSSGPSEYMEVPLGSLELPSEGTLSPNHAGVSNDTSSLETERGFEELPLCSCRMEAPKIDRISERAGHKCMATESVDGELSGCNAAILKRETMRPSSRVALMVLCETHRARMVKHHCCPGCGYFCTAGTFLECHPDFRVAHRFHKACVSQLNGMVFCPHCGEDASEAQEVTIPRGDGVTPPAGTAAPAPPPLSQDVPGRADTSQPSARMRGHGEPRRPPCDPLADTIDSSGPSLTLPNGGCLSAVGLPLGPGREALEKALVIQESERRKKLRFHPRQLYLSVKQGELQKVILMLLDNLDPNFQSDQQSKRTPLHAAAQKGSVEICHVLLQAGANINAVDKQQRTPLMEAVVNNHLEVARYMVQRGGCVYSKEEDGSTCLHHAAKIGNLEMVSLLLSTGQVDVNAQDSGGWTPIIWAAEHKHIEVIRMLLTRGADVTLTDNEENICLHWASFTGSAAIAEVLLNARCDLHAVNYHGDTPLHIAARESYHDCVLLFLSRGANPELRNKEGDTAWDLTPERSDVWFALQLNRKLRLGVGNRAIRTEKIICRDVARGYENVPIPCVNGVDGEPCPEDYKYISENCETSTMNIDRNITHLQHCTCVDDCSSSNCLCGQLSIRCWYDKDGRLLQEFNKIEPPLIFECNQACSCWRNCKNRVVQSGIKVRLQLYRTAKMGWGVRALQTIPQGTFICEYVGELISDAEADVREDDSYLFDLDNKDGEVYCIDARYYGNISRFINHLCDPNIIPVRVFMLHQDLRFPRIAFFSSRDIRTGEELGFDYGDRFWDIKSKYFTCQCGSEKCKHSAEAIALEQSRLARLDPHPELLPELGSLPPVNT
The experiment is described as follows: Histone methyltransferase (HMTase) assay, G9a. The class given is biochemical. To be noted: even at 100 μM. Here is the method: as §1
(§2) The deacetylation assay was performed as per standard protocol^31. For SirT2 deacetylase assay, 50 ng of bacterially expressed, recombinant enzyme was added in the presence or absence of cofactor NAD^+. HMTase was performed as reported earlier^31.

The target of another experiment is T3, CARM1 (Homo sapiens, UniProt Q86X55).
T3 construct: Recombinant baculovirus expressing full-length FLAG-tagged CARM1,CBP and PCAF; FLAG; made in house; host or cells: baculovirus-infected Sf21 cells
T3 sequence (Q86X55 1-608): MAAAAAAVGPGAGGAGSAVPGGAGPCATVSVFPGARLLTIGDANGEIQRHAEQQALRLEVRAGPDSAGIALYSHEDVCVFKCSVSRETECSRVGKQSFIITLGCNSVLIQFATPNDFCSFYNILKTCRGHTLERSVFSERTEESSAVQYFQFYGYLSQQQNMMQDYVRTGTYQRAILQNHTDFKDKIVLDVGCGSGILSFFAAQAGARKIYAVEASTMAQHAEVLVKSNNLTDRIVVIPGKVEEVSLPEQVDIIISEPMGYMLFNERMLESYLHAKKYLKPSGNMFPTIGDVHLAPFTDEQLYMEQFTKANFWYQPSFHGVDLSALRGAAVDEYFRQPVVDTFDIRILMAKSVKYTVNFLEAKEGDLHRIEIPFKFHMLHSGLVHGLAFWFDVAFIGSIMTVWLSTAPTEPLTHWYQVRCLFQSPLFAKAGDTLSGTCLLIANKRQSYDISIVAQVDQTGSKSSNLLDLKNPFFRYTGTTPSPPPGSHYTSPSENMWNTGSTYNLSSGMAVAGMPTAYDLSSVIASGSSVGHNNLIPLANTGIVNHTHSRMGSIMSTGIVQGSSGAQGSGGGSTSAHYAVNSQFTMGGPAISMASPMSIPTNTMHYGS
The experiment is described as follows: Histone methyltransferase (HMTase) assay, CARM1. The class given is biochemical. The following applies: even at 100 μM. Here is the method:
as §1, §2

Experiment [2] deals with T1, PCAF. The experiment is described as follows: PCAF autoacetylation assay in vitro. The format is biochemical. The following applies: concentration dependent.
Experiment [3] has as its system cyclin E and cyclin D1 expression in KB cells. The experiment can be described thus: Cyclin expression in KB cells. The format is cell-based. The method, then:
KB cells were maintained in Dullbecco's modified Eagle medium (DMEM) with 10% fetal bovine serum (FBS) at 37° C. with a 5% CO2 atmosphere in a humidified incubator. For IFNγ and GSNO treatment, KB cells were incubated in the presence of IFNγ 10 ng ml^−1 for an additional 16 h and 24 h respectively. Immunofluorescent staining of cells for confocal microscopy was carried out as described previously^30. CTK7A treatment was done for 24 h followed by acid extraction of histone and immunoblotting as per standard protocol^31. For whole cell extract preparation RIPA buffer (Tris-HCl 50 mM, pH 7.4 NP-40 1%, Na-deoxycholate 0.25%, NaCl 150 mM, EDTA 1 mM, Phenylmethylsulfonyl fluoride (PMSF), 1 mM Na3VO4, 1 mM NaF and protease inhibitor cocktail) was used.

T1 sequence (Q92831 whole entry, species assumed): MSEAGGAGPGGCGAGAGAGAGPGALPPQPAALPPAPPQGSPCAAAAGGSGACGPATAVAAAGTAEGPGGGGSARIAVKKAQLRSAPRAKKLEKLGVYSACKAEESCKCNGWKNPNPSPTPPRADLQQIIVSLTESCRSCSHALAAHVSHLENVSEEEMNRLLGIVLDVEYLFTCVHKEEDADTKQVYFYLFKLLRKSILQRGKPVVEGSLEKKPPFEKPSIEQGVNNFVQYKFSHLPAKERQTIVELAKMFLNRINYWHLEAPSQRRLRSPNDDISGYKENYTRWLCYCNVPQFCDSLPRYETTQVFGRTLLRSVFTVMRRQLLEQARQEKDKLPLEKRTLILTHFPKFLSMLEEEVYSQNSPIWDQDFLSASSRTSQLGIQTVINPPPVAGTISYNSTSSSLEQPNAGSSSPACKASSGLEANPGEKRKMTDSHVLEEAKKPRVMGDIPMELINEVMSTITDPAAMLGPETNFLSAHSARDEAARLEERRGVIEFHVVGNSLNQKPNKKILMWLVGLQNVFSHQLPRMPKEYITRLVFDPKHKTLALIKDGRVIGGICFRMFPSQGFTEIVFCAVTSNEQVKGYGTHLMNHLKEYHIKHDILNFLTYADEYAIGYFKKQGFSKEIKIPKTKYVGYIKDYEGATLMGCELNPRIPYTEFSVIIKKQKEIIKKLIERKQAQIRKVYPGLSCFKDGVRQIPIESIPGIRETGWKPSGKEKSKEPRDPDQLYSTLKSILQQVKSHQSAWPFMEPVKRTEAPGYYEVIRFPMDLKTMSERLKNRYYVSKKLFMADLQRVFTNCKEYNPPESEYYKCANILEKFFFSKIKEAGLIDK

Turning to `COc1cc([O-])cc(C=CC2=NN(c3ccc(C(=O)[O-])cc3)C(C=Cc3cc([O-])cc(OC)c3)C2)c1.[Na+].[Na+].[Na+]` (stereo not drawn) [CTK7A, Sodium 4-(3,5-bis(3-methoxy-5-oxidostyryl)-4,5dihydro-1H-pyrazole-1-yl)benzoate], on PCAF [1], the “inhibition of PCAF HAT activity” value is on record as “inhibit”. Besides, on G9a, the “effect on G9a activity” value is listed as “unaffected”. Further, the “effect on CARM1 activity” value at CARM1 was “unaffected”. On PCAF [2], the “inhibition of PCAF autoacetylation” value is listed as “inhibit”. For the same molecule, in experiment [3], the “cyclin D1 expression” value was “affected marginally”. Also, in experiment [3] (dose dependent), the “cyclin E expression” value is “down regulated”.
